# Where “and” joins values, the source holds several entries; their conditions need not be identical. Equal values may be shown once.
# Key:
# Experiment in all cases: ≥ marks a high value that may be exact or a test limit, other limits are often not marked, values filed in µg/mL are converted to µM
# [1] = system: Vibrio anguillarum
# [2] = system: Staphylococcus aureus
# [3] = system: Escherichia coli
# [4] = system: Vibrio fluvialis
# [5] = system: Vibrio alginolyticus
# [6] = system: Vibrio parahaemolyticus
# [7] = system: Salmonella typhimurium
# [8] = system: Staphylococcus epidermidis
# [9] = system: Staphylococcus aureus A170
# [10] = system: Candida albicans 01U
# [11] = system: Trichophyton mentagrophytes
# [12] = system: Cryptococcus neoformans L30
# [13] = system: Trichophyton rubrum
# [14] = system: Candida parapsilosis
# [15] = system: Candida albicans 38U
# [16] = system: Cryptococcus neoformans L26
# [17] = system: Psychrobacter faecalis X29
# [18] = system: Escherichia coli ATCC 25922
# [19] = system: Enterobacter cloacae CGMCC 1.57
# [20] = system: Candida albicans ATCC 10231
# [21] = system: Enterococcus faecalis 981
# [22] = system: Klebsiella pneumoniae 08040724
# [23] = system: Enterococcus faecium 091299
# [24] = system: Staphylococcus aureus ATCC 25923
# [25] = system: Candida glabrata 090902
# [26] = system: Nocardia asteroides 201118
# [27] = system: Staphylococcus aureus MRSA-16
# [28] = system: Staphylococcus aureus MRSA-G
# [29] = system: Pseudomonas aeruginosa CGMCC 1.860
# [30] = system: Pseudomonas aeruginosa 0108
# [31] = system: Pseudomonas aeruginosa PAO1
# [32] = system: Salmonella enterica subsp. enterica serovar Typhimurium ATCC 14028
# [33] = system: Pseudomonas aeruginosa PA006
# [34] = system: Klebsiella pneumoniae ATCC 700603
# [35] = system: Pseudomonas aeruginosa Pa4-SA2
# [36] = system: Staphylococcus aureus ATCC 29313
# [37] = system: Pseudomonas aeruginosa ATCC 27853
# [38] = system: Pseudomonas aeruginosa Pa1-SA2
smiles,measurement,setting,value
CSCC[C@H](NC(=O)[C@H](CO)NC(=O)[C@H](CC(C)C)NC(=O)[C@H](Cc1cnc[nH]1)NC(=O)[C@H](CO)NC(=O)[C@@H](N)CCC(N)=O)C(=O)N[C@H]1CSSC[C@@H](C(=O)N[C@@H](CCCCN)C(=O)N[C@@H](Cc2ccccc2)C(=O)O)NC(=O)[C@@H]2CSSC[C@@H]3NC(=O)[C@@H]4CSSC[C@H](NC(=O)[C@H](Cc5ccc(O)cc5)NC(=O)[C@H](CCCN=C(N)N)NC1=O)C(=O)N[C@@H](CSSC[C@H](NC(=O)CNC(=O)[C@H](CCCCN)NC(=O)[C@H](CC(N)=O)NC(=O)[C@H](CC(N)=O)NC(=O)[C@H](CCCN=C(N)N)NC3=O)C(=O)NCC(=O)N[C@@H](Cc1ccccc1)C(=O)N2)C(=O)N[C@@H](CC(N)=O)C(=O)N4 [QSHLSMCRYCCNCCRNNKGCGFCCKF],MIC,[1],≥ 50 µM
same,MIC,[2],50 µM
same,MIC,[3],50 µM
same,MIC,[4],25 µM
same,MIC,[5],≥ 50 µM
same,MIC,[6],≥ 50 µM
CC[C@H](C)[C@H](NC(=O)[C@@H]1CCCN1C(=O)[C@H](CC(C)C)NC(=O)[C@@H](N)CC(C)C)C(=O)N[C@H](C(=O)NCC(=O)N[C@@H](CC(N)=O)C(=O)N[C@@H](CC(C)C)C(=O)N[C@@H](CC(C)C)C(=O)N[C@@H](CCCCN)C(=O)N[C@@H](CO)C(=O)N[C@@H](CC(C)C)C(=O)N[C@@H](CC(C)C)C(=O)O)C(C)C [LLPIVGNLLKSLL],MIC,[7],≥ 71.8 µM
same,MIC,[8],21.5 µM
same,MIC,[9],17.9 µM
same,MIC,[3],> 71.8 µM
CC[C@H](C)[C@H](NC(=O)[C@H](CC(C)C)NC(=O)[C@H](CCC(=O)O)NC(=O)[C@H](CO)NC(=O)[C@H](CCCN=C(N)N)NC(=O)[C@@H](N)CO)C(=O)N[C@H](C(=O)N[C@@H](Cc1cnc[nH]1)C(=O)N[C@@H](CCC(N)=O)C(=O)N[C@@H](CCCN=C(N)N)C(=O)N[C@@H](CCSC)C(=O)N[C@@H](CCCCN)C(N)=O)C(C)C [SRSELIVHQRMK],MIC,[10],21.6 µM
same,MIC,[11],≥ 173 µM
same,MIC,[12],≥ 173 µM
same,MIC,[13],21.6 µM
same,MIC,[14],≥ 173 µM
same,MIC,[15],21.6 µM
same,MIC,[16],≥ 173 µM
CC[C@H](C)[C@H](NC(=O)CNC(=O)[C@@H](NC(=O)[C@H](C)NC(=O)[C@H](C)NC(=O)[C@H](CCCCN)NC(=O)[C@@H](NC(=O)[C@H](CC(C)C)NC(=O)CNC(=O)[C@@H]1CCCN1C(=O)[C@H](CC(C)C)NC(=O)[C@@H](N)Cc1ccccc1)[C@@H](C)CC)C(C)C)C(=O)NCC(=O)N[C@@H](CO)C(=O)N[C@H](C(=O)N[C@H](C(=O)N[C@@H](Cc1ccccc1)C(=O)N[C@H]1CSSC[C@@H](C(=O)O)NC(=O)[C@H](CCCCN)NC(=O)[C@H](CCCCN)NC(=O)[C@H](CO)NC(=O)[C@H]([C@@H](C)CC)NC(=O)[C@H](CCCCN)NC1=O)[C@@H](C)CC)[C@@H](C)O [FLPGLIKAAVGIGSTIFCKISKKC],MIC,[17],25 µM
same,MIC,[18],100 µM
same,MIC,[19],≥ 100 µM
same,MIC,[20],50 µM
same,MIC,[21],3.1 µM
same,MIC,[22],≥ 100 µM
same,MIC,[23],≥ 100 µM
same,MIC,[24],6.3 µM
same,MIC,[25],6.3 µM
same,MIC,[26],3.1 µM
CC[C@H](C)[C@H](NC(=O)[C@H](C)NC(=O)[C@H](CCCCN)NC(=O)[C@@H](NC(=O)CNC(=O)CNC(=O)[C@H](Cc1c[nH]c2ccccc12)NC(=O)[C@H](Cc1ccccc1)NC(=O)[C@H](CCCCN)NC(=O)[C@H](CCCCN)NC(=O)[C@H](Cc1ccccc1)NC(=O)[C@@H](N)Cc1ccccc1)C(C)C)C(=O)N[C@@H](Cc1ccccc1)C(=O)N[C@@H](CCCCN)C(=O)NCC(=O)N[C@@H](C)C(=O)N[C@@H](CCCN=C(N)N)C(=O)N[C@@H](CCCCN)C(=O)NCC(=O)N[C@@H](Cc1c[nH]c2ccccc12)C(=O)N[C@@H](CCCCN)C(=O)O [FFKKFWGGVKAIFKGARKGWK],MIC,[18],2 µM and > 1 µM
same,MIC,[27],4 µM
same,MIC,[28],4 µM
same,MIC,[24],4 µM and > 2 µM
CC[C@H](C)[C@H](N)C(=O)N[C@@H](CCCCN)C(=O)N[C@@H](CCCCN)C(=O)N[C@H](C(=O)N[C@@H](Cc1c[nH]c2ccccc12)C(=O)N[C@@H](CO)C(=O)N[C@@H](CCCCN)C(=O)N[C@H](C(=O)N[C@@H](CCCCN)C(=O)N[C@@H](CCCCN)C(=O)N[C@@H](CC(C)C)C(=O)N[C@@H](CC(C)C)C(=O)N[C@@H](CCCCN)C(N)=O)[C@@H](C)CC)[C@@H](C)CC [IKKIWSKIKKLLK],MIC,[29],6.25 µM
same,MIC,[30],12.5 µM
CC[C@H](C)[C@H](NC(=O)[C@H](CCCCN)NC(=O)CNC(=O)[C@H](CCSC)NC(=O)[C@H](C)NC(=O)[C@H](Cc1cnc[nH]1)NC(=O)[C@H](C)NC(=O)[C@@H](NC(=O)[C@H](CC(C)C)NC(=O)[C@H](CCC(N)=O)NC(=O)[C@H](CCCN=C(N)N)NC(=O)CNC(=O)[C@H](C)NC(=O)[C@H](CC(=O)O)NC(=O)[C@H](CCCCN)NC(=O)[C@@H](NC(=O)[C@@H](NC(=O)[C@H](CC(=O)O)NC(=O)[C@H](Cc1ccccc1)NC(=O)[C@@H](NC(=O)CN)C(C)C)[C@@H](C)CC)[C@@H](C)CC)C(C)C)C(=O)N[C@@H](C)C(=O)N[C@@H](CCC(=O)O)C(=O)N[C@@H](CCCCN)C(=O)N[C@H](C(N)=O)C(C)C [GVFDIIKDAGRQLVAHAMGKIAEKV],MIC,[18],300 µM
same,MIC,[31],192 µM
same,MIC,[32],> 300 µM
same,MIC,[33],12 µM
same,MIC,[34],> 300 µM
same,MIC,[35],≥ 48 µM
same,MIC,[36],≥ 300 µM
same,MIC,[37],> 192 µM
same,MIC,[38],≥ 96 µM

# Reference: DBAASP
